Experimental data taken from patent publication EP1803452A1, “ESTER DERIVATIVE AND PHARMACEUTICAL USE THEREOF” (Japan Tobacco, Inc., priority 2004, dated 2006).

Key:
[1] = Metabolic stability test in liver S9; type: in vitro ADME; conditions: pH 7.4, human liver S9 2 mg protein/mL, LC/MS; for remaining at 10 min: unchanged form after 10 minutes at 37°C, read-out: Remaining rate in human liver S9 (%/10min); for remaining at 1 h: unchanged form after 60 minutes at 37°C, read-out: Remaining rate in human liver S9 (%/60min)
Outline: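 Compound from DMSO solution was incubated at 37°C with human liver S9 (final 2 mg protein/mL) in 100 mM potassium phosphate pH 7.4 with an NADPH-regenerating system for 0, 10 and 60 minutes. Reactions were stopped with acetonitrile/0.1% formic acid. Unchanged compound was measured by LC/MS as remaining rate (%) relative to zero time.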

[2] = Stability test in buffer (pH 7.4); type: physicochemical; conditions: phosphate buffer/acetonitrile 7:3, 100 mM potassium phosphate buffer (pH 7.4) and acetonitrile 7:3 (v/v), LC/MS; for remaining at 10 min: 10 minutes at 37°C, read-out: Buf. remaining rate (%/10min); for remaining at 1 h: 60 minutes at 37°C, read-out: Buf. remaining rate (%/60min)
Outline: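 Compound from DMSO solution incubated at 37°C in 100 mM potassium phosphate buffer/acetonitrile 7:3 (v/v) for 0, 10 and 60 min, then quenched with acetonitrile containing formic acid (final 0.1%). Unchanged compound in supernatant quantified by LC/MS; remaining rate (%) = amount at each time / amount at zero time × 100.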

[3] = Metabolic stability test in plasma; type: in vitro ADME, human; conditions: LC/MS; for remaining at 10 min: unchanged form after 10 minutes at 37°C in human plasma, read-out: Remaining rate in human plasma (%/10min); for remaining at 1 h: unchanged form after 60 minutes at 37°C in human plasma, read-out: Remaining rate in human plasma (%/60min)
Outline: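 Compound in DMSO spiked into human, mouse or hamster plasma, incubated at 37°C for 0, 10 and 60 minutes, then quenched with acetonitrile/formic acid (final 0.1%). Unchanged compound in supernatant quantified by LC/MS; remaining rate (%) relative to time zero.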

Row | SMILES | remaining at 10 min [1] | remaining at 1 h [1] | remaining at 10 min [2] | remaining at 1 h [2] | remaining at 10 min [3] | remaining at 1 h [3]
1 | COC(=O)c1cc(C)c(OC(=O)CCCc2ccc(NC(=O)c3ccc(C)nc3-c3ccc(C(F)(F)F)cc3)c(C(=O)N(C)C)c2)c(C(F)(F)F)c1 [Compound 1-45, 4-[4-(3-dimethylcarbamoyl-4-([6-methyl-2-(4-trifluoromethylphenyl)pyridine-3-carbonyl]amino}phenyl)butyryloxy]-3-methyl-5-trifluoromethylbenzoic acid methyl ester] | 12% | 2% | 101% | 102% | 89% | 48%
2 | COC(=O)c1cc(C)c(OC(=O)CCCc2ccc(NC(=O)c3ccc(C)nc3-c3ccc(C(F)(F)F)cc3)c(C(=O)N(C)C)c2)c(OC)c1 [Compound 1-46, 4-[4-(3-dimethylcarbamoyl-4-{[6-methyl-2-(4-trifluoromethylphenyl)pyridine-3-carbonyl]amino}phenyl)butyryloxy]-3-methoxy-5-methylbenzoic acid methyl ester] | 5% | 2% | 99% | 102% | 39% | 0%
3 | COC(=O)c1cc(OC)c(OC(=O)CCCc2ccc(NC(=O)c3ccc(C)nc3-c3ccc(C(F)(F)F)cc3)c(C(=O)N(C)C)c2)c(C(F)(F)F)c1 [Compound 1-47, 4-[4-(3-dimethylcarbamoyl-4-{[6-methyl-2-(4-trifluoromethylphenyl)pyridine-3-carbonyl]amino}phenyl)butyryloxy]-3-methoxy-5-trifluoromethylbenzoic acid methyl ester] | 14% | 0% | 96% | 97% | 0% | 0%
4 | CCOC(=O)c1cc(Cl)c(OC(=O)CCCc2ccc(NC(=O)c3ccc(C)nc3-c3ccc(C(F)(F)F)cc3)c(C(=O)N(C)C)c2)c(OC)c1 [Compound 1-48, 3-chloro-4-[4-(3-dimethylcarbamoyl-4-{[6-methyl-2-(4-trifluoromethylphenyl)pyridine-3-carbonyl]amino}phenyl)butyryloxy]-5-methoxybenzoic acid ethyl ester] | 16% | 6% | 99% | 97% | 0% | 0%
5 | CCOc1cc(C(=O)OC)cc(OC)c1OC(=O)CCCc1ccc(NC(=O)c2ccc(C)nc2-c2ccc(C(F)(F)F)cc2)c(C(=O)N(C)C)c1 [Compound 1-49, 4-[4-(3-dimethylcarbamoyl-4-{[6-methyl-2-(4-trifluoromethylphenyl)pyridine-3-carbonyl]amino}phenyl)butyryloxy]-3-ethoxy-5-methoxybenzoic acid methyl ester] | 6% | 1% | 100% | 100% | 0% | 0%
6 | COC(=O)c1cc(Br)c(OC(=O)CCCc2ccc(NC(=O)c3ccc(C)nc3-c3ccc(C(F)(F)F)cc3)c(C(=O)N(C)C)c2)c(OC)c1 [Compound 1-50, 3-bromo-4-[4-(3-dimethylcarbamoyl-4-{[6-methyl-2-(4-trifluoromethylphenyl)pyridine-3-carbonyl]amino}phenyl)butyryloxy]-5-methoxybenzoic acid methyl ester] | 7% | 2% | 97% | 103% | 0% | 0%
7 | CCc1cc(C(=O)OC)cc(C(=O)OC)c1OC(=O)CCCc1ccc(NC(=O)c2ccc(C)nc2-c2ccc(C(F)(F)F)cc2)c(C(=O)N(C)C)c1 [Compound 1-51, 4-[4-(3-dimethylcarbamoyl-4-([6-methyl-2-(4-trifluoromethylphenyl)pyridine-3-carbonyl]amino}phenyl)butyryloxy]-5-ethylisophthalic acid dimethyl ester] | 8% | 3% | 98% | 101% | 23% | 0%
8 | CCOC(=O)c1cc(C)c(OC(=O)CCCc2ccc(NC(=O)c3ccc(C)nc3-c3ccc(C(F)(F)F)cc3)c(C(=O)N(C)C)c2)c(C(=O)OC)c1 [Compound 1-52, 4-[4-(3-dimethylcarbamoyl-4-{[6-methyl-2-(4-trifluoromethylphenyl)pyridine-3-carbonyl]amino}phenyl)butyryloxy]-5-methylisophthalic acid 1-ethyl ester 3-methyl ester] | 13% | 4% | 100% | 101% | 12% | 0%
9 | COC(=O)c1cc(OC)c(OC(=O)CCCc2ccc(NC(=O)c3ccc(C)nc3-c3ccc(C(F)(F)F)cc3)c(C(=O)N(C)C)c2)c(C(=O)OC)c1 [Compound 1-53, 4-[4-(3-dimethylcarbamoyl-4-{[6-methyl-2-(4-trifluoromethylphenyl)pyridine-3-carbonyl]amino}phenyl)butyryloxy]-5-methoxyisophthalic acid dimethyl ester] | 5% | 2% | 100% | 106% | 3% | 3%
10 | COC(=O)c1cc(C)c(OC(=O)CCCc2ccc(NC(=O)c3ccccc3-c3ccc(C(F)(F)F)cc3)c(C(=O)N(C)C)c2)c(C)c1 [Compound 1-64, 4-[4-(3-dimethylcarbamoyl-4-{(4'-trifluoromethylbiphenyl-2-carbonyl)amino}phenyl)butyryloxy]-3,5-dimethylbenzoic acid methyl ester] | 21% | 4% | 100% | 101% | 98% | 93%

Other lines, results leading:

Row | remaining at 10 min [1] | remaining at 1 h [1] | remaining at 10 min [2] | remaining at 1 h [2] | remaining at 10 min [3] | remaining at 1 h [3] | SMILES
11 | 8% | 0% | 104% | 104% | 98% | 94% | COC(=O)c1cc(C)c(OC(=O)CCCc2ccc(NC(=O)c3ccc(C)nc3-c3ccc(C(F)(F)F)cc3)c(C(=O)N(C)C)c2)c(C)c1 [Compound 1-65, 4-[4-(3-dimethylcarbamoyl-4-{[6-methyl-2-(4-trifluoromethylphenyl)pyridine-3-carbonyl]amino}phenyl)butyryloxy]-3,5-dimethylbenzoic acid methyl ester]
12 | 3% | 0% | 101% | 103% | 67% | 8% | COC(=O)c1ccc(OC(=O)CCCc2ccc(NC(=O)c3ccccc3-c3ccc(C(F)(F)F)cc3)c(C(=O)N(C)C)c2)c(C)c1 [Compound 1-66, 4-[4-(3-dimethylcarbamoyl-4-{(4'-trifluoromethylbiphenyl-2-carbonyl)amino}phenyl)butyryloxy]-3-methylbenzoic acid methyl ester]
13 | 3% | 0% | 103% | 105% | 77% | 17% | CCc1cc(C(=O)OC)ccc1OC(=O)CCCc1ccc(NC(=O)c2ccccc2-c2ccc(C(F)(F)F)cc2)c(C(=O)N(C)C)c1 [Compound 1-67, 4-[4-(3-dimethylcarbamoyl-4-{(4'-trifluoromethylbiphenyl-2-carbonyl)amino}phenyl)butyryloxy]-3-ethylbenzoic acid methyl ester]
14 | 11% | 3% | 101% | 103% | 77% | 18% | COC(=O)c1ccc(OC(=O)CCCc2ccc(NC(=O)c3ccccc3-c3ccc(C(F)(F)F)cc3)c(C(=O)N(C)C)c2)c(C(C)C)c1 [Compound 1-68, 4-[4-(3-dimethylcarbamoyl-4-{(4'-trifluoromethylbiphenyl-2-carbonyl)amino}phenyl)butyryloxy]-3-isopropylbenzoic acid methyl ester]
15 | 0% | 0% | 101% | 106% | 70% | 11% | COC(=O)c1ccc(OC(=O)CCCc2ccc(NC(=O)c3ccc(C)nc3-c3ccc(C(F)(F)F)cc3)c(C(=O)N(C)C)c2)c(C)c1 [Compound 1-69, 4-[4-(3-dimethylcarbamoyl-4-{[6-methyl-2-(4-trifluoromethylphenyl)pyridine-3-carbonyl]amino}phenyl)butyryloxy]-3-methylbenzoic acid methyl ester]
